# Values quoted from earlier work in PubChem BioAssay AID1259409 (Chemical Carcinogenesis Research Information System (CCRIS), 2018).
# Test system: rodent chemically induced tumor inhibition, incidence and multiplicity
# Test: CCRIS tumor inhibitor studies
smiles,measurement,setting,value
C[C@]12CC[C@H](OS(=O)(=O)O)CC1=CC[C@@H]1[C@@H]2CC[C@]2(C)C(=O)CC[C@@H]12,"tumour outcome (control, treated, inhibition, significance)","Carcinogen: 7,12-DIMETHYLBENZ[A]ANTHRACENE, 57-97-6, Dose [Inhibitor]: 0, 1 X 0.5 CM LONG SILASTIC IMPLANT 7 D PRIOR TO CARCINOGEN TREATMENT (STUDY DURATION: 111 D), Route [Inhibitor]: SUBCUTANEOUS IMPLANT, Species: RAT, Strain/Sex: SPRAGUE-DAWLEY/FEMALE, Target Tissue: Type of Lesion: MAMMARY GLAND: CARCINOMA, Dose [Carcinogen]: 20 MG IN 1 ML CORN OIL ADMINISTERED ON DAYS 50 TO 52 OF AGE, Promoter: NONE USED","68%, 41%, 40%, not significant"
same,"tumour outcome (control, treated, inhibition, significance)","Carcinogen: 7,12-DIMETHYLBENZ[A]ANTHRACENE, 57-97-6, Dose [Inhibitor]: 0, 1 X 1 CM LONG SILASTIC IMPLANT 7 D PRIOR TO CARCINOGEN TREATMENT (STUDY DURATION: 111 D), Route [Inhibitor]: SUBCUTANEOUS IMPLANT, Species: RAT, Strain/Sex: SPRAGUE-DAWLEY/FEMALE, Target Tissue: Type of Lesion: MAMMARY GLAND: CARCINOMA, Dose [Carcinogen]: 20 MG IN 1 ML CORN OIL ADMINISTERED ON DAYS 50 TO 52 OF AGE, Promoter: NONE USED","68%, 44%, 35%, not significant"
same,"tumour outcome (control, treated, inhibition, significance)","Carcinogen: 7,12-DIMETHYLBENZ[A]ANTHRACENE, 57-97-6, Dose [Inhibitor]: 0, 1 X 3 CM LONG SILASTIC IMPLANT 7 D PRIOR TO CARCINOGEN TREATMENT (STUDY DURATION: 111 D), Route [Inhibitor]: SUBCUTANEOUS IMPLANT, Species: RAT, Strain/Sex: SPRAGUE-DAWLEY/FEMALE, Target Tissue: Type of Lesion: MAMMARY GLAND: CARCINOMA, Dose [Carcinogen]: 20 MG IN 1 ML CORN OIL ADMINISTERED ON DAYS 50 TO 52 OF AGE, Promoter: NONE USED","68%, 22%, 68%, p<0.01"
same,"tumour outcome (control, treated, inhibition, significance)","Carcinogen: 7,12-DIMETHYLBENZ[A]ANTHRACENE, 57-97-6, Dose [Inhibitor]: 0, 3 X 3 CM LONG SILASTIC IMPLANT 7 D PRIOR TO CARCINOGEN TREATMENT (STUDY DURATION: 111 D), Route [Inhibitor]: SUBCUTANEOUS IMPLANT, Species: RAT, Strain/Sex: SPRAGUE-DAWLEY/FEMALE, Target Tissue: Type of Lesion: MAMMARY GLAND: CARCINOMA, Dose [Carcinogen]: 20 MG IN 1 ML CORN OIL ADMINISTERED ON DAYS 50 TO 52 OF AGE, Promoter: NONE USED","68%, 11%, 84%, p<0.01"
same,"tumour outcome (control, treated, inhibition, significance)","Carcinogen: 7,12-DIMETHYLBENZ[A]ANTHRACENE, 57-97-6, Dose [Inhibitor]: 0, 6 X 3 CM LONG SILASTIC IMPLANT 7 D PRIOR TO CARCINOGEN TREATMENT (STUDY DURATION: 111 D), Route [Inhibitor]: SUBCUTANEOUS IMPLANT, Species: RAT, Strain/Sex: SPRAGUE-DAWLEY/FEMALE, Target Tissue: Type of Lesion: MAMMARY GLAND: CARCINOMA, Dose [Carcinogen]: 20 MG IN 1 ML CORN OIL ADMINISTERED ON DAYS 50 TO 52 OF AGE, Promoter: NONE USED","68%, 4%, 94%, p<0.01"
same,"tumour outcome (control, treated, inhibition, significance)","Carcinogen: N-NITROBIS(2-OXOPROPYL)AMINE, 60599-38-4, Dose [Inhibitor]: 0, 350 MG/KG ONCE ON DAY 1 OF STUDY (STUDY DURATION: 70 D), Route [Inhibitor]: INTRAPERITONEAL, Species: HAMSTER, Strain/Sex: SYRIAN/FEMALE, Target Tissue: Type of Lesion: PANCREAS: CARCINOMA, Dose [Carcinogen]: 70 MG/KG ONCE ON DAY 1 OF STUDY THEN ONCE ON DAYS 17 AND 32 OF STUDY, Promoter: ETHIONINE, 67-21-0, METHIONINE, 63-68-3, Promoter: ETHIONINE, 67-21-0, METHIONINE, 63-68-3","8/15 (53%), 6/15 (40%), 25%, not significant"
same,"tumour outcome (control, treated, inhibition, significance)","Carcinogen: N-NITROSOBIS(2-OXOPROPYL)AMINE, 60599-38-4, Dose [Inhibitor]: 0, 175 MG/KG ONCE ON DAY 1 OF STUDY (STUDY DURATION: 70 D), Route [Inhibitor]: INTRAPERITONEAL, Species: HAMSTER, Strain/Sex: SYRIAN/FEMALE, Target Tissue: Type of Lesion: PANCREAS: CARCINOMA, Dose [Carcinogen]: 70 MG/KG ONCE ON DAY 1 OF STUDY THEN ONCE ON DAYS 17 AND 32 OF STUDY, Promoter: ETHIONINE, 67-21-0, METHIONINE, 63-68-3, Promoter: ETHIONINE, 67-21-0, METHIONINE, 63-68-3","8/15 (53%), 9/16 (56%), -7%, not significant"
C[C@@H](O)[C@@H]1NC(=O)[C@H](CCCCN)NC(=O)[C@@H](Cc2c[nH]c3ccccc23)NC(=O)[C@H](Cc2ccccc2)NC(=O)[C@@H](NC(=O)[C@H](N)Cc2ccccc2)CSSC[C@@H](C(=O)N[C@H](CO)[C@@H](C)O)NC1=O,"tumour outcome (control, treated, inhibition, significance)","Carcinogen: N-NITROSOBIS(2-OXOPROPYL)AMINE [60599-38-4], Dose [Inhibitor]: 0, 3 UG/KG/D FOR 4 WK BEGINNING 1 WK PRIOR TO FIRST CARCINOGEN (STUDY DURATION: 40 WK), Route [Inhibitor]: SUBCUTANEOUSLY IMPLANTED OSMOTIC PUMP, Species: HAMSTER, Strain/Sex: SYRIAN/FEMALE, Target Tissue: Type of Lesion: PANCREAS: ADENOCARCINOMA, Dose [Carcinogen]: 10 MG/KG BW ONCE/WK FOR 3 WK (STUDY DURATION: 40 WK), Promoter: NONE","8/18 (44%), 11/20 (55%), -25%, not significant"
same,"tumour outcome (control, treated, inhibition, significance)","Carcinogen: N-NITROSOBIS(2-OXOPROPYL)AMINE [60599-38-4], Dose [Inhibitor]: 0, 6 UG/KG/D FOR 4 WK BEGINNING 1 WK PRIOR TO FIRST CARCINOGEN (STUDY DURATION: 40 WK), Route [Inhibitor]: SUBCUTANEOUSLY IMPLANTED OSMOTIC PUMP, Species: HAMSTER, Strain/Sex: SYRIAN/FEMALE, Target Tissue: Type of Lesion: PANCREAS: ADENOCARCINOMA, Dose [Carcinogen]: 10 MG/KG BW ONCE/WK FOR 3 WK (STUDY DURATION: 40 WK), Promoter: NONE","8/18 (44%), 9/20 (45%), -2%, not significant"
[O]=[W](=[O])([OH])[OH],outcome,"Carcinogen: N-NITROSO-N-METHYLUREA, 684-93-5, Dose [Inhibitor]: 0, 150 PPM IN DRINKING WATER BEGINNING AT 35 D OF AGE (STUDY DURATION:198 D), Route [Inhibitor]: ORAL, Species: RAT, Strain/Sex: SPRAGUE-DAWLEY/FEMALE, Target Tissue: Type of Lesion: MAMMARY GLAND: CARCINOMA, Dose [Carcinogen]: 5 MG/100 G BW ONCE AT 50 D OF AGE, Promoter: NONE USED","50%, 79%, -58%, p<0.05 at 125 d; 91%, 96%, -5%, not calculated at 198 d"
same,"tumour outcome (control, treated, inhibition, significance)","Carcinogen: N-NITROSOSARCOSINE ETHYL ESTER, 1130-69-4, Dose [Inhibitor]: 100 PPM IN DRINKING WATER DAILY FOR 19 WK STARTING 3 WK PRIOR TO START OF CARCINOGEN TREATMENT (STUDY DURATION: 19 WK), Route [Inhibitor]: ORAL, Species: RAT, Strain/Sex: SPRAGUE-DAWLEY/MALE, Target Tissue: Type of Lesion: ESOPHAGUS: CARCINOMA, Dose [Carcinogen]: 10 ML/KG BW 2/WK FOR 8 WK, Promoter: NONE USED","80%, 80%, 0%, not significant"
same,"tumour outcome (control, treated, inhibition, significance)","Carcinogen: N-NITROSOSARCOSINE ETHYL ESTER, 1130-69-4, Dose [Inhibitor]: 100 PPM IN DRINKING WATER DAILY FOR 19 WK STARTING 3 WK PRIOR TO START OF CARCINOGEN TREATMENT (STUDY DURATION: 19 WK), Route [Inhibitor]: ORAL, Species: RAT, Strain/Sex: SPRAGUE-DAWLEY/MALE, Target Tissue: Type of Lesion: FORESTOMACH: CARCINOMA, Dose [Carcinogen]: 10 ML/KG BW 2/WK FOR 8 WK, Promoter: NONE USED","70%, 80%, -14%, not significant"
same,"tumour outcome (control, treated, inhibition, significance)","Carcinogen: N-NITROSOSARCOSINE ETHYL ESTER, 1130-69-4, Dose [Inhibitor]: 100 PPM IN DRINKING WATER DAILY FOR 30 WK STARTING 3 WK PRIOR TO START OF CARCINOGEN TREATMENT (STUDY DURATION: 30 WK), Route [Inhibitor]: ORAL, Species: RAT, Strain/Sex: SPRAGUE-DAWLEY/MALE, Target Tissue: Type of Lesion: ESOPHAGUS: CARCINOMA, Dose [Carcinogen]: 10 ML/KG BW 2/WK FOR 8 WK, Promoter: NONE USED","91%, 86%, 5%, not significant"
same,"tumour outcome (control, treated, inhibition, significance)","Carcinogen: N-NITROSOSARCOSINE ETHYL ESTER, 1130-69-4, Dose [Inhibitor]: 100 PPM IN DRINKING WATER DAILY FOR 30 WK STARTING 3 WK PRIOR TO START OF CARCINOGEN TREATMENT (STUDY DURATION: 30 WK), Route [Inhibitor]: ORAL, Species: RAT, Strain/Sex: SPRAGUE-DAWLEY/MALE, Target Tissue: Type of Lesion: FORESTOMACH: CARCINOMA, Dose [Carcinogen]: 10 ML/KG BW 2/WK FOR 8 WK, Promoter: NONE USED","100%, 100%, 0%, not significant"
Oc1cccc(O)c1O,"tumour outcome (control, treated, inhibition, significance)","Carcinogen: BENZO[A]PYRENE, 50-32-8, Dose [Inhibitor]: 5 MG IN 0.1 ML ACETONE 3/WK ADMINISTERED SIMULTANEOUSLY WITH CARCINOGEN FOR DURATION OF STUDY (STUDY DURATION: 440 D), Route [Inhibitor]: DERMAL, Species: MOUSE, Strain/Sex: ICR/FEMALE, Target Tissue: Type of Lesion: SKIN: PAPILLOMA, Dose [Carcinogen]: 5 UG IN 0.1 ML ACETONE THAT ALSO CONTAINED AGENT 3/WK, Promoter: NONE USED","16/50 (32%), 40/50 (80%), -150%, not calculated"
same,"tumour outcome (control, treated, inhibition, significance)","Carcinogen: BENZO[A]PYRENE, 50-32-8, Dose [Inhibitor]: 5 MG IN 0.1 ML ACETONE 3/WK ADMINISTERED SIMULTANEOUSLY WITH CARCINOGEN FOR DURATION OF STUDY (STUDY DURATION: 440 D), Route [Inhibitor]: DERMAL, Species: MOUSE, Strain/Sex: ICR/FEMALE, Target Tissue: Type of Lesion: SKIN: SQUAMOUS CARCINOMA, Dose [Carcinogen]: 5 UG IN 0.1 ML ACETONE THAT ALSO CONTAINED AGENT 3/WK, Promoter: NONE USED","12/50 (24%), 33/50 (66%), -175%, not calculated"
